Source: patent publication US20130210846A1, “USE OF NOVEL PAN-CDK INHIBITORS FOR TREATING TUMORS” (BAYER INTELLECTUAL PROPERTY GMBH, priority 2010, published 2013)
pIC50: −log10 of the molar value.

Columns and labels:
[1] = tested on: MCF7; assay: Proliferation assay MCF7; type: cell-based, human; conditions: MCF7, estrogen receptor-positive mamma carcinoma; 4 days, crystal violet
Experimental: (§1) Cultivated human tumor cells (originally obtained from ATCC, HeLa-MaTu and HeLa-MaTu-ADR, originally obtained from Epo GmbH, Berlin, Germany) were plated at a density of 1000 to 5000 cells/measuring point, depending on the growth rate of the cell line, in a 96-well multititer plate in 200 μl of growth medium (DMEM/HAMS F12, 2 mM L-glutamine, 10% fetal calf serum). After 24 hours the cells of one plate (zero-point plate) were stained with crystal violet (see below), whereas the medium of the other plates was replaced with fresh culture medium (200 μl), to which the test substances had been added at various concentrations (0 μM, and in the range 0.01-30 μM; the final concentration of the solvent dimethyl sulfoxide was 0.5%). The cells were incubated for 4 days in the presence of the test substances. Cellular proliferation was determined by staining the cells with crystal violet: the cells were fixed by adding 20 μl/measuring point of an 11% glutaraldehyde solution for 15 min at room temperature. After washing the fixed cells with water three times, the plates were dried at room temperature. The cells were stained by adding 100 μl/measuring point of a 0.1% crystal violet solution (pH adjusted to pH3 by adding acetic acid). After washing the stained cells with water three times, the plates were dried at room temperature. The dye was dissolved by adding 100 μl/measuring point of a 10% acetic acid solution. The extinction was determined photometrically at a wavelength of 595 nm. The percentage change in cell growth was calculated by standardization of the measured values to the extinction values of the zero-point plate (=0%) and the extinction of the untreated (0 μM) cells (=100%). The measured data were standardized to 0% inhibition (cell proliferation without inhibitor) and 100% inhibition (zero-point plate). The IC50 values were determined by means of a 4-parameter fit using the company's own software.
(§2) The substances were examined in the following cell lines which, in an exemplary manner, represent the stated indications: […]

[2] = tested on: Caco-2; assay: Proliferation assay Caco-2; type: cell-based, human; conditions: Caco-2, colon/rectum carcinoma; 4 days, crystal violet
Experimental: as §1, §2

[3] = tested on: DU145; assay: Proliferation assay DU145; type: cell-based, human; conditions: DU145, prostate carcinoma; 4 days, crystal violet
Experimental: as §1, §2

[4] = tested on: NCI-H460; assay: Proliferation assay NCI-H460; type: cell-based, human; conditions: NCI-H460, non-small-cell bronchial carcinoma; 4 days, crystal violet
Experimental: as §1, §2

[5] = tested on: HeLa-MaTu; assay: Proliferation assay HeLa-MaTu; type: cell-based, human; conditions: cervix carcinoma, 4 days, crystal violet
Experimental: as §1, §2

[6] = tested on: HeLa-MaTu-ADR; assay: Proliferation assay HeLa-MaTu-ADR; type: cell-based, human; conditions: cervix carcinoma, 4 days, crystal violet
Experimental: as §1, §2

[7] = molecular target: T1, CDK1/CycB (Homo sapiens, UniProt P06493); assay: CDK1/CycB kinase assay (Assay 1); type: biochemical; conditions: 0.5 μM ATP, histon IIIS, 10 min 22° C.; read-out: CDK1/CycB (Assay 1) Concentration for half-maximal inhibition of the enzyme activity, IC50
T1 construct: purchased ProQinase GmbH, Freiburg, Germany; host or cells: baculovirus-infected insect cells (Sf9)
Experimental: Recombinant CDK1 and CycB-GST fusion proteins, purified from baculovirus-infected insect cells (Sf9), were purchased from ProQinase GmbH, Freiburg, Germany. The histon HIS used as kinase substrate is commercially available from Sigma.
CDK1/CycB (200 ng/measuring point) was incubated for 10 min at 22° C. in the presence of various concentrations of test substances (0 μM, and within the range 0.01-100 μM) in assay buffer [50 mM Tris/HCl pH8.0, 10 mM MgCl2, 0.1 mM Na ortho-vanadate, 1.0 mM dithiothreitol, 0.5 μM adenosine triphosphate (ATP), 10 μg/measuring point histon IIIS, 0.2 μCi/measuring point ^33P-gamma ATP, 0.05% NP40, 1.25% dimethyl sulfoxide]. The reaction was stopped by adding EDTA solution (250 mM, pH 8.0, 15 μl/measuring point).
(§3) From each reaction mixture, 15 μl were applied to P30 filter strips (from Wallac), and unincorporated ^33P-ATP was removed by washing the filter strips three times, for 10 min each time, in 0.5% phosphoric acid. After drying the filter strips for 1 hour at 70° C., the filter strips were covered with scintillator strips (MeltiLex™ A, from Wallac) and stoved for 1 hour at 90° C. The amount of incorporated ^33P (substrate phosphorylation) was determined by scintillation measurement in a gamma-radiation measuring instrument (Wallac). The measured data were standardized to 0% inhibition (enzyme reaction without inhibitor) and 100% inhibition (all assay components except enzyme). The IC50 values were determined by means of a 4-parameter fit using the company's own software.

[8] = molecular target: T2, CDK2/CycE (Homo sapiens, UniProt P24941); assay: CDK2/CycE kinase assay (Assay 2); type: biochemical; conditions: 0.5 μM ATP, histon IIIS, 10 min 22° C.; read-out: CDK2/CycE (Assay 2) Concentration for half-maximal inhibition of the enzyme activity, IC50
T2 construct: purchased ProQinase GmbH, Freiburg, Germany; host or cells: baculovirus-infected insect cells (Sf9)
Experimental: Recombinant CDK2 and CycE-GST fusion proteins, purified from baculovirus-infected insect cells (Sf9), were purchased from ProQinase GmbH, Freiburg, Germany. Histon HIS, used as kinase substrate, was purchased from Sigma.
The reaction was stopped by adding EDTA solution (250 mM, pH 8.0, 15 μl/measuring point).
as §3, with “μl was” for “μl were”, “(Wallac). […]” for “(Wallac). The measured data were standardized to 0% inhibition (enzyme reaction without inhibitor) and 100% inhibition (all assay components except enzyme).”

[9] = molecular target: T3, VEGF receptor tyrosine kinase-2 (VEGF-R2) (Homo sapiens, UniProt P35968); assay: VEGF receptor-2 kinase assay (Assay 3); type: biochemical; conditions: 8 μM ATP, poly-(Glu4Tyr), 10 min 22° C.; read-out: VEGF-R2 (Assay 3) Concentration for half-maximal inhibition of the enzyme activity, IC50
T3 construct: GST; made in house; host or cells: baculovirus-infected insect cells (Sf9)
Experimental: Recombinant VEGF receptor tyrosine kinase-2 was purified as GST fusion protein from baculovirus-infected insect cells (Sf9). Poly-(Glu4Tyr), used as kinase substrate, was purchased from Sigma.
VEGF receptor tyrosine kinase (90 ng/measuring point) was incubated for 10 min at 22° C. in the presence of various concentrations of test substances (0 μM, and within the range 0.001-30 μM) in 30 μl assay buffer [40 mM Tris/HCl pH5.5, 10 mM MgCl2, 1 mM MnCl2, 3 μM Na ortho-vanadate, 1.0 mM dithiothreitol, 8 μM adenosine triphosphate (ATP), 0.96 μg/measuring point poly-(Glu4Tyr), 0.2 μCi/measuring point ^33P-gamma ATP, 1.4% dimethyl sulfoxide]. The reaction was stopped by adding EDTA solution (250 mM, pH 8.0, 15 μl/measuring point).
as §3, with “μl was” for “μl were”

T3 sequence (P35968 20-1356, species assumed): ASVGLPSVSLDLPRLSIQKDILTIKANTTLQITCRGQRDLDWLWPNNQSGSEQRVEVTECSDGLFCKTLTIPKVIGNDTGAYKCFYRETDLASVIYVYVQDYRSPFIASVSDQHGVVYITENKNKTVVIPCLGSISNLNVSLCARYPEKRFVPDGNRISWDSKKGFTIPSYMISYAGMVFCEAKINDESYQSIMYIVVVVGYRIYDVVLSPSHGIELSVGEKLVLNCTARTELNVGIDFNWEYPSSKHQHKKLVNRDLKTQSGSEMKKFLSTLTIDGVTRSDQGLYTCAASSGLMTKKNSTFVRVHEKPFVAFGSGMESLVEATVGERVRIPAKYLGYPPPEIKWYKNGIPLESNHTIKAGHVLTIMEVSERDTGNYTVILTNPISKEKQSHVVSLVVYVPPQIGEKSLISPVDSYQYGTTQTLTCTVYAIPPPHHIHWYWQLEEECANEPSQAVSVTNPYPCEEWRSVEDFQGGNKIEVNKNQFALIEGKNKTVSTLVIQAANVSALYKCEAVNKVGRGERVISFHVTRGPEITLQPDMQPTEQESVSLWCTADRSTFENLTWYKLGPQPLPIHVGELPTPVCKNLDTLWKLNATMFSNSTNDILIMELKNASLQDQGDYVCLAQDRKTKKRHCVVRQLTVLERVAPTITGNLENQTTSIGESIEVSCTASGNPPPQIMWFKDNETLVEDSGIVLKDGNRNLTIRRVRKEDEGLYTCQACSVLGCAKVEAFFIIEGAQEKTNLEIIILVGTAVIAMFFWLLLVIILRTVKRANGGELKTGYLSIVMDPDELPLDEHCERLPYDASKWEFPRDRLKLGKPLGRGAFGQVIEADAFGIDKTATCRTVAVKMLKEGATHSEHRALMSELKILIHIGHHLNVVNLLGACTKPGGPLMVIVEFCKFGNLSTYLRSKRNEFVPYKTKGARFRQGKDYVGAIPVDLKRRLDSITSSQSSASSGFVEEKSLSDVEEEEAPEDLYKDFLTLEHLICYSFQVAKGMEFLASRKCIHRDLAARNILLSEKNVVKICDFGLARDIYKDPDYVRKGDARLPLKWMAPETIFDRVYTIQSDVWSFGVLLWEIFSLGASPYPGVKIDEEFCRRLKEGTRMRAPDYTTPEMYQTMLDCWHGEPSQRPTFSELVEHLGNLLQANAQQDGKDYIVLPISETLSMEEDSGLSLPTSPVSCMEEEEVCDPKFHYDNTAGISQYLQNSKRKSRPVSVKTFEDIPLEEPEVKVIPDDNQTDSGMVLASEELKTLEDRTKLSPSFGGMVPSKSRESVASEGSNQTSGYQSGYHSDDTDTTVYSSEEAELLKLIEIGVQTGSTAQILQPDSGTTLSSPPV
T1 sequence (P06493 whole entry): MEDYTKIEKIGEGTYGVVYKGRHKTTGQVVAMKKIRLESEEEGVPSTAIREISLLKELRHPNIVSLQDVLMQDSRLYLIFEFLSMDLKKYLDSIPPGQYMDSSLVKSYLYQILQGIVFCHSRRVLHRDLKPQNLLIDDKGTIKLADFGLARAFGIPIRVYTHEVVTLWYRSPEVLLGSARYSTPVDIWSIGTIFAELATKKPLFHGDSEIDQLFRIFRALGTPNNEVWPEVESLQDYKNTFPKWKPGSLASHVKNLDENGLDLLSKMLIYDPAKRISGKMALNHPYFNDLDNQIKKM
T1 sequence (P14635 whole entry partner): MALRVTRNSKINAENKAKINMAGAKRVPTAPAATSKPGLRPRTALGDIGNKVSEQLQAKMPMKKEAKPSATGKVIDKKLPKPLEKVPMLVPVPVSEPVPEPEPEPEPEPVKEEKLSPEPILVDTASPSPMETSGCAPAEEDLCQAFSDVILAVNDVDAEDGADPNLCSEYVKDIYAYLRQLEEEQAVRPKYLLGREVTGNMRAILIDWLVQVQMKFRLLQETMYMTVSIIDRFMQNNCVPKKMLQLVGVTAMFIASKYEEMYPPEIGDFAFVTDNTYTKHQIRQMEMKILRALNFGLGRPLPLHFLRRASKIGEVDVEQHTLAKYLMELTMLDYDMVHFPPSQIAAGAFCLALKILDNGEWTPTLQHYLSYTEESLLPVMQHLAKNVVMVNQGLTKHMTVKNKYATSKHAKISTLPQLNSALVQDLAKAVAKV

| Compound | pIC50 [1] | pIC50 [2] | pIC50 [3] | pIC50 [4] | pIC50 [5] | pIC50 [6] | pIC50 [7] | pIC50 [8] | pIC50 [9] | pIC50 ([5]; Homo sapiens, 96 h) |
| --- | --- | --- | --- | --- | --- | --- | --- | --- | --- | --- |
| CCS(=N)(=O)c1ccc(Nc2ncc(C(F)(F)F)c(N[C@H](C)[C@@H](C)O)n2)cc1 (mixture of isomers) [Example 6-SI-1, (RS)—S-Ethyl-S-(4-{[4-{[(1R,2R)-2-hydroxy-1-methylpropyl]amino}-5-(trifluoromethyl)-pyrimidin-2-yl]amino}phenyl)sulfoximide] | 7.23 | 6.92 | 7.00 | 7.30 |  | 7.46 | 8.00 | 8.30 | 7.14 |  |
| CCS(=N)(=O)c1ccc(Nc2ncc(C(F)(F)F)c(N[C@H](C)C(C)(C)O)n2)cc1 (single isomer, unassigned) [Example 7-SI-1] |  |  |  |  |  |  | 7.62 | 8.40 | 6.84 |  |
| C[C@@H](O)[C@@H](C)Oc1nc(Nc2ccc(S(C)(=N)=O)cc2)ncc1C(F)(F)F (mixture of isomers) [Example 2-SI-1, (RS)—S-(4-{[4-{[(1R,2R)-2-Hydroxy-1-methylpropyl]oxy}-5-(trifluoromethyl)pyrimidin-2-yl]-amino}phenyl)-S-methylsulfoximide] | 7.41 | 7.10 | 7.55 | 7.17 |  | 7.49 |  |  |  |  |
| C[C@@H](O)[C@@H](C)Oc1nc(Nc2ccc(S(=N)(=O)C3CC3)cc2)ncc1C(F)(F)F (mixture of isomers) [Example 1-SI-1, (RS)—S-Cyclopropyl-S-(4-{[4-{[(1R,2R)-2-hydroxy-1-methylpropyl]oxy}-5-(trifluoromethyl)-pyrimidin-2-yl]amino}phenyl)sulfoximide] | 7.32 | 7.10 | 7.35 | 7.32 |  | 7.46 |  |  | 6.94 | 7.89 |
| CCS(=N)(=O)c1ccc(Nc2ncc(C(F)(F)F)c(N[C@H](C)C(C)(C)O)n2)cc1 (mixture of isomers) [Example 7-SI-1, (RS)—S-Ethyl-S-(4-{[4-{[(R)-2-hydroxy-1,2-dimethylpropyl]amino}-5-(trifluoromethyl)pyrimidin-2-yl]amino}phenyl)sulfoximide] | 6.97 | 6.71 | 6.82 | 6.92 | 7.57 | 6.95 |  |  |  |  |
| CCS(=N)(=O)c1ccc(Nc2ncc(C(F)(F)F)c(N[C@H](C)C(C)(C)O)n2)cc1 (mixture of isomers) [Example 7-SI-2, (RS)—S-Ethyl-S-(4-{[4-{[(R)-2-hydroxy-1,2-dimethylpropyl]amino}-5-(trifluoromethyl)pyrimidin-2-yl]amino}phenyl)sulfoximide] | 7.41 | 7.17 | 7.38 | 7.29 | 8.00 | 7.44 |  |  |  |  |

Next, values leading:

| pIC50 [1] | pIC50 [2] | pIC50 [3] | pIC50 [4] | pIC50 [5] | pIC50 [6] | pIC50 [7] | pIC50 [8] | pIC50 [9] | pIC50 ([5]; Homo sapiens, 96 h) | Compound |
| --- | --- | --- | --- | --- | --- | --- | --- | --- | --- | --- |
| 6.57 | 6.70 | 6.73 | 6.95 | 7.68 | 6.94 |  |  |  |  | C[C@@H](Nc1nc(Nc2ccc(S(C)(=N)=O)cc2)ncc1C(F)(F)F)C(C)(C)O (mixture of isomers) [Example 9-SI-2, (RS)—S-(4-{[4-{[(1R)-2-Hydroxy-1,2-dimethylpropyl]amino}-5-(trifluoromethyl)pyrimidin-2-yl]amino}phenyl)-S-methylsulfoximide] |
|  |  |  |  |  |  | 7.77 | 8.52 | 6.81 |  | C[C@@H](Nc1nc(Nc2ccc(S(C)(=N)=O)cc2)ncc1C(F)(F)F)C(C)(C)O (single isomer, unassigned) [Example 9-SI-2] |
| 7.64 | 7.39 | 7.52 | 7.55 | 8.00 | 7.62 |  |  |  |  | C[C@@H](O)[C@@H](C)Nc1nc(Nc2ccc(S(C)(=N)=O)cc2)ncc1C(F)(F)F (mixture of isomers) [Example 8-SI-2, (RS)—S-(4-{[4-{[(1R,2R)-2-Hydroxy-1-methylpropyl]amino}-5-(trifluoromethyl)pyrimidin-2-yl]-amino}phenyl)-S-methylsulfoximide] |
| 7.05 | 7.21 | 7.47 | 7.47 |  | 7.72 |  |  |  |  | C[C@@H](Nc1nc(Nc2ccc(S(C)(=N)=O)cc2)ncc1C(F)(F)F)C(C)(C)O (mixture of isomers) [Example 9-SI-1, (RS)—S-(4-{[4-{[(1R)-2-Hydroxy-1,2-dimethylpropyl]amino}-5-(trifluoromethyl)pyrimidin-2-yl]amino}phenyl)-S-methylsulfoximide] |
|  |  | 7.19 |  |  |  |  |  |  |  | C[C@@H](O)[C@@H](C)Nc1nc(Nc2ccc(S(C)(=N)=O)cc2)ncc1C(F)(F)F (mixture of isomers) [Example 8-SI-1, (RS)—S-(4-{[4-{[(1R,2R)-2-Hydroxy-1-methylpropyl]amino}-5-(trifluoromethyl)pyrimidin-2-yl]-amino}phenyl)-S-methylsulfoximide] |
